The target in test [1] is T1, Aβ1-42 (Homo sapiens, UniProt P05067).
T1 construct: human A81-42 monomers (UniProtKB-P05067, a.a. 672-713)
In words: Aβ aggregation inhibition test (Thioflavin T analysis). Type of test: biochemical. To be noted: for Aβ aggregation degree compared to the control / amyloid aggregation inhibition effect compared to the control: 2 μM compound, Aβ1-42 50 μM; for Aβ aggregation degree compared to the control: 37° C. 72 hours, control = 100%; for amyloid aggregation inhibition effect compared to the control: 72 hours; for Aggregation (%): 20 μM compound, 50 μM Aβ, 3 days, relative to control (100%). The protocol:
Then, the compound was used diluted by using 6% DMSO (in DW) and used.
Triflupromazine hydrochloride (triflupromazine used in all the examples below is triflupromazine hydrochloride) was dissolved to a concentration of 5 mM in DMSO. The compound was then used diluted with 6% DMSO (in DW).
The Aβ solution was prepared by dissolving human A81-42 monomers (UniProtKB-P05067, a.a. 672-713) to 10 mM concentration in DMSO. Thereafter, the mixture was diluted to 100 uM by using DW and stored on ice.
On the other hand, Thioflavin-T (Sigma-Aldrich) was dissolved to the concentration of 5 mM in 50 mM glycine buffer (pH 8.5). Then, the resultant solution was diluted to the concentration of 50 μM by using 50 mM glycine buffer (pH 8.5) and stored in the dark while light was blocked.
(§1) 25 μL of the reaction solution in which the reaction was completed was added to each well of a 96-well fluorescence assay plate, and 75 μL of the Thioflavin-T solution prepared above was added to each well. After reacting for 5 minutes in the dark at room temperature, fluorescence values were measured at excitation 450 nm and emission 485 nm by using a multi-mode microplate reader.
The fluorescence value of the group (control) treated with Aβ alone and aggregated for 72 hours was considered as 100%, and the measured fluorescence values were expressed as a relative value thereto, and results thereof are shown in FIG. 1 and FIG. 2.
In addition, by performing the same test as described above for 20 μM of various compounds using 50 μM Aβ, the degree of Aβ aggregation was measured, and the result is expressed as a relative value for control (100%).

The next test has as its system APP/PS1 TG mice. The experiment in a line: Y-maze test. Particulars: 8th week after oral administration; compared to TG-Veh and WT-Veh. In kind it is in vivo. An excerpt: (§2) Transgenic mice (APP/PS1 TG; Alzheimer' disease animal model; B6C3-Tg(APPswe, PSEN1dE)85Dbo/Mmjax) and wild type mice were derived from Jackson Laboratory (Bar Harbor, Maine, USA). APP/PS1 TG mice crossed with wild-type mice and maintained as double hemizygotes. All genotypes were confirmed by PCR analysis using tail DNA according to the standard PCR conditions of the Jackson Laboratory. Each mouse was housed in a plastic cage in the animal cage and the temperature of the plastic cage was maintained at 21±1° C. in alternating 12 hour light cycle, and the mice were freely fed with food and water.
The control group received the same amount of vehicle (0.5% MC in DW).
Y-maze test was performed using a maze structure made by placing the same three arms 40 cm in length (15 cm in height of the wall) at an angle of 120 degrees. […] The search time was 8 minutes per subject, and the final result was expressed as a spontaneous alteration (%) value. Spontaneous alteration (%) value was calculated by the following formula. […]
Behavioral patterns were analyzed using SMART VIDEO TRACKING Software (Panlab, USA). All data obtained in the experiments were expressed as mean±standard error mean (SEM), and the drug-applied group was compared with the non-drug group, which was a control, by using student's t-test.

For test [2], the target named is T1, Aβ1-42. In words: Aβ disaggregation test by Thioflavin T analysis. Type of test: biochemical. Particulars: for amyloid disaggregation effect: Aβ1-42 25 μM; for degree of Aβ aggregation compared to the control: Aβ1-42 25 μM pre-aggregated 72 hours, then 72 hours. As to the method: (§3) The compound was then used diluted with 6% DMSO (in DW).
Triflupromazine hydrochloride was dissolved to the concentration of 5 mM in DMSO. The compound was then used diluted with 6% DMSO (in DW).
(§4) The Aβ solution was prepared by dissolving Aβ 1-42 monomers to the concentration of 10 mM in DMSO. Thereafter, the mixture was diluted to 100 μM by using DW and stored on ice.
(§5) On the other hand, Thioflavin-T was dissolved to the concentration of 5 mM in 50 mM glycine buffer (pH 8.5). Then, the resultant solution was diluted to the concentration of 50 μM by using 50 mM glycine buffer (pH 8.5) and stored in the dark while light was blocked.
The Aβ solution prepared in Example 2.1. was placed in 1.5 mL microcentrifuge tubes, each having 25 μM of the Aβ solution, and then reacted at 37° C. for 72 hours.
as §1
The fluorescence value of the group (control) treated with Aβ alone and aggregated for 72 hours was considered as 100%, and the measured fluorescence values were expressed as a relative value thereto, and results thereof are shown in FIG. 3 and FIG. 4.

Test [3] deals with T1, Aβ1-42. The experiment in a line: Aβ disaggregation test of rifamycin-based derivatives by Thioflavin T analysis. Type of test: biochemical. To be noted: 50 μM compound, 50 μM Aβ1-42 aggregated 3 days, then 2 days of reaction. The protocol: as §3, §4, §5
The Aβ solution prepared in Example 3.1. was placed in 1.5 mL microcentrifuge tubes, each having 50 μM of the Aβ solution, and then reacted at 37° C. for 72 hours.
Each 1.5 mL microcentrifuge tube was treated with 50 μM rifapentine-based derivatives, followed by reaction at 37° C. for 48 hours.
as §1
The fluorescence value of the group (control) treated with Aβ alone and aggregated for 72 hours by treating only Aβ was considered as 100%, and the measured fluorescence values were expressed as a relative value thereto, and results thereof are shown in FIG. 7.

The next test has as its target T2, Aβ42 (Homo sapiens, UniProt P05067).
T2 construct: human A81-42 monomers (UniProtKB-P05067, a.a. 672-713)
The experiment in a line: Aβ disaggregation test by SDS-PAGE analysis (PICUP). Type of test: biochemical. To be noted: 25 μM Aβ aggregated 3 days, 50 μM or 500 μM compound, further 3 days. As to the method:
In order to confirm Aβ disaggregation in the sample prepared in Example 2.1, SDS-PAGE analysis was performed as follows.
In detail, the stock of ammonium persulfate (APS; 200 mM)and tris (2,2′-bipyridyl)dichlororuthenium (II) hexahydrate (Ru; 10 mM) was prepared in an amber tube (Axygen, MCT-150-X) by using a photo-induced cross-linking of unmodified proteins (PICUP) buffer (0.1 M sodium phosphate (pH 7.4)). The stock was diluted 10-fold in PICUP buffer (APS: 20 mM/Ru: 1 mM). 10 μL of each sample prepared in Example 2.1 was dispensed at the bottom of a 0.5 mL tube (Axygen, PCR-05-C). 1 μL of APS (20 mM) was dispensed on the tube wall and 1 μL of Ru (1 mM) on the tube cap. At this time, in order to prevent the reaction from proceeding, the sample was not mixed with APS and Ru. After closing the tube cap and spin down using a centrifuge, the tube was removed from the centrifuge and exposed to light 3 times per second using an incandescent lamp. 3 μL of 5× reducing sample buffer (w/5% β-mercaptoethanol) was added to each tube. Samples were heated at 95-100° C. for 5 minutes and then cooled on ice.
Then, the PICUP-treated samples were loaded on 4-20% (w/v) tris/glycine gel and electrophoresed at 100V for 1 hour and 30 minutes. After electrophoresis, the gel was separated and confirmed by silver staining.

Test [4] has as its system Total Tau (T-Tau) and phosphorylated Tau (P-Tau). The experiment in a line: Western blot of total and phosphorylated Tau in brain tissue after oral triflupromazine. In kind it is in vivo, mice.
Excerpt: as §2, with “(5×FAD; Alzheimer's” for “(APP/PS1 TG; Alzheimer'”, “B6SJL-Tg (APPSwFILon, PSEN1*M146L*L286V)6799Vas/Mmjax))” for “B6C3-Tg(APPswe, PSEN1dE)85Dbo/Mmjax)”, “wild-type” for “wild type”, “obtained” for “derived”, “5× FAD” for “APP/PS1 TG”, “Four to six mice were” for “Each mouse was”
(§6) Seven-month old 5× FAD mice were orally treated with 50 mg/kg of triflupromazine once every two days for 3 weeks. The control received the same amount of vehicle (1% (w/v) DMSO in PBS).
Mice were anesthetized using 2%(w/v) avertin (20 mg/g, i.p.). The mice were perfused with 0.9%(w/v) NaCl and brains thereof were excised. The hemibrains were fixed overnight at 4° C. in 4° /0(w/v) paraformaldehyde (pH 7.4). For cryopreservation, brains were soaked in 30%(w/v) sucrose for 48 hours. The other hemibrains were dissected into cortical and hippocampal regions and homogenized on ice for 30 minutes in lysis buffer (10 mM Tris-HCl, 5 mM EDTA in 320 mM sucrose, pH 7.4) containing 1× protease inhibitor cocktail. The sample was centrifuged at 13500 rpm for 30 minutes at 4° C. The lysate concentration was measured using the BCA protein assay kit (thermoFisher, cat #232250) according to the manufacturer's instructions. The absorbance was read at 560 nm.
Changes in Tau, a major cause of Alzheimer's dementia and Parkinson's disease, together with Aβ plaques, were confirmed by Western blot analysis. Samples of the prepared tissues were separated by SDS-PAGE and transferred to PVDF membrane. The membrane was treated overnight at 4° C. using the primary antibody. As the primary antibody, antibodies capable of detecting Total Tau (T-Tau) and phosphorylated Tau (P-Tau) were used, and detection was performed using a secondary antibody conjugated with horseradical peroxidase (HRP). The blot development was performed with a Clarity Western ECL substrate (Bio-Rad) according to the manufacturer's instructions.
On the other hand, in wild type mice (Wt), a decrease in total Tau (T-Tau) and phosphorylated Tau (P-Tau) was not observed.
A general note: Immunoblotting shows a protein as a band on a membrane.

Another test has as its system 5× FAD mice. In words: Amyloid plaque reduction by oral triflupromazine, Thioflavin S staining. In kind it is in vivo. To be noted: oral 50 mg/kg once every two days for 3 weeks; vs vehicle control mice.
Excerpt: as §2, with “(5×FAD; Alzheimer's” for “(APP/PS1 TG; Alzheimer'”, “B6SJL-Tg (APPSwFILon, PSEN1*M146L*L286V)6799Vas/Mmjax))” for “B6C3-Tg(APPswe, PSEN1dE)85Dbo/Mmjax)”, “wild-type” for “wild type”, “obtained” for “derived”, “5× FAD” for “APP/PS1 TG”, “Four to six mice were” for “Each mouse was”
as §6
Mice were anesthetized using 2%(w/v) avertin (20 mg/g, i.p.). The mice were perfused with 0.9%(w/v) NaCl and brains thereof were excised. […] The lysate concentration was measured using the BCA protein assay kit (thermoFisher, cat #232250) according to the manufacturer's instructions. The absorbance was read at 560 nm.
To stain frozen brain with thioflavin S (ThS), the brain was cut to 35 um thickness to create tissue sections using cryostat (Leica CM1800) and then Aβ plaques were stained. […] Images were obtained using a Leica DM2500 fluorescence microscope.

Where [5] appears, read: 5× FAD (Tg) mice, cortex and hippocampus tissue, oral 50 mg/kg once every two days for 3 weeks, vs Tg veh.

Structures are written as SMILES.

T1 sequence (P05067 672-713): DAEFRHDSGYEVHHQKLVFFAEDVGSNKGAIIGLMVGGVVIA
T2 sequence (P05067 672-713): as above

Regarding `CO[C@H]1/C=C/O[C@@]2(C)Oc3c(C)c(O)c4c(O)c(c(/C=N/N5CCN(C6CCCC6)CC5)c(O)c4c3C2=O)NC(=O)/C(C)=C\C=C\[C@H](C)[C@H](O)[C@@H](C)[C@@H](O)[C@@H](C)[C@H](OC(C)=O)[C@@H]1C` [rifapentine, 3-[[(4-cyclopentyl-1-piperazinyl)imino]methyl]-rifamycin], on Aβ1-42 [1], the “Aβ aggregation degree compared to the control” value was at most 40%, the “amyloid aggregation inhibition effect compared to the control” value is at least 60% and the “Aggregation (%)” value worked out at 13.35%. Besides, in the test with APP/PS1 TG mice, the “spontaneous alteration (%)” value is given as “increased closer to the positive control group (WT-Veh)”. Further, on Aβ1-42 [2] (50 μM compound), the amyloid disaggregation effect is listed as at least 90% and the “degree of Aβ aggregation compared to the control” value is at most 10%. At Aβ1-42 [2] (500 μM compound), the amyloid disaggregation effect was at least 99% and the “degree of Aβ aggregation compared to the control” value is listed as at most 1%. Besides, at Aβ1-42 [3], the “Aβ disaggregation effect compared to the control” value is at least 90% and the “degree of Aβ aggregation compared to the control” value was at most 10%. Besides, the “Aβ disaggregation (bands of aggregated Aβ fibrils and dimers)” value on Aβ42 was “concentration-dependent Aβ disaggregation activity”.
On to `CN(C)CCCN1c2ccccc2Sc2ccc(C(F)(F)F)cc21` [triflupromazine, dimethyl ({3-[2-(trifluoromethyl)-10H-phenothiazin-10-yl]propyl})amine], for which, at Aβ1-42 [1], the “Aβ aggregation degree compared to the control” value was at most 70%, the “amyloid aggregation inhibition effect compared to the control” value is at least 30% and the “Aggregation (%)” value is listed as 49.84%. Besides, in test [4] (setting [5]), the “P-Tau (phosphorylated Tau)” value is “decreased” and the “T-Tau (Total Tau)” value is given as “decreased”. Besides, in test [4] (wild type mice (Wt)), the “decrease in phosphorylated Tau (P-Tau)” value is listed as “not observed” and the “decrease in total Tau (T-Tau)” value was “not observed”. Moreover, at Aβ1-42 [2] (50 μM compound), the amyloid disaggregation effect is at least 35% and the “degree of Aβ aggregation compared to the control” value was at most 65%. For the same compound, at Aβ1-42 [2] (500 μM compound), the amyloid disaggregation effect is at least 75% and the “degree of Aβ aggregation compared to the control” value was at most 25%. For the same compound, in the test on 5× FAD mice, the number of plaques result is reported as “reduced” and the “total areas of plaques” value is given as “reduced”. Moreover, at Aβ42, the “Aβ disaggregation (bands of aggregated Aβ fibrils and dimers)” value is “concentration-dependent Aβ disaggregation activity”.

The record behind these values is patent publication US20240139178A1, “METHOD FOR MANUFACTURING COMPOSITION FOR COMPOSITION FOR INCREASING COGNITIVE FUNCTION” (priority 2018, published 2024).
